According to patent US20190313644A1, “METHOD FOR FRUIT THINNING” (Adama Agan Ltd., priority 2015, published 2019):

Experiments:
[1] = system: Golden Delicious variety of apples; assay: Fruit thinning field trial, first and optional second application of metamitron; assay type: in vivo; conditions: for Thinning Effect (%): vs untreated control
Protocol: A formulation of metamitron in the form of a soluble granule was diluted to the desired concentration with water. The following concentrations were prepared: • 1.1 Kg/ha metamitron (low dosage) • 1.65 Kg/ha metamitron (medium dosage) • 2.2 Kg/ha metamitron (high dosage) The experiments were conducted on the Golden Delicious variety of apples in Germany and Italy. The first application of metamitron was applied to the fruit trees in May when the fruit was at fruiting stage BBCH69-BBCH72. The second application of metamitron was applied, if applicable, five days after the first application. Local meteorological data was obtained from local weather stations. The meteorological data was inputted into the MaluSim Carbon Balance Model of Lakso (described at […].cornell.edu/apple_thin_help.html, the contents of which are hereby incorporated by reference) in order to obtain the level of carbohydrates available in the fruit tree. The thinning effect is calculated by comparing the treated fruit trees with the untreated control as follows: […]

[2] = system: Golden Delicious variety of apples; assay: Photosynthetic activity levels of the fruit bearing tree after the first application; assay type: in vivo
Protocol: The experiments were conducted on the Golden Delicious variety of apples in Germany and Italy. The first application of metamitron was applied to the fruit trees in May when the fruit was at fruiting stage BBCH69-BBCH72. The second application of metamitron was applied, if applicable, five days after the first application. […] Based on this and on the predicted meteorological data for the time of the second application, the second application should be applied at a high dose in order to effectively thin the fruit bearing tree. […] No over-thinning was observed.

[3] = Germany, 1st application 1.65 Kg/ha, 2nd application 0 Kg/ha
[4] = Germany, 1st application 1.65 Kg/ha, 2nd application 1.1 Kg/ha
[5] = Germany, 1st application 1.65 Kg/ha, 2nd application 2.2 Kg/ha
[6] = Germany, 1st application 2.2 Kg/ha, 2nd application 0 Kg/ha
[7] = Germany, 1st application 2.2 Kg/ha, 2nd application 1.1 Kg/ha
[8] = Germany, 1st application 2.2 Kg/ha, 2nd application 1.65 Kg/ha
[9] = Germany, 1st application 2.2 Kg/ha, 2nd application 2.2 Kg/ha
[10] = Italy, 1st application 1.65 Kg/ha, 2nd application 0 Kg/ha
[11] = Italy, 1st application 1.65 Kg/ha, 2nd application 1.1 Kg/ha
[12] = Italy, 1st application 1.65 Kg/ha, 2nd application 2.2 Kg/ha
[13] = Italy, 1st application 2.2 Kg/ha, 2nd application 0 Kg/ha
[14] = Italy, 1st application 2.2 Kg/ha, 2nd application 2.2 Kg/ha

Cc1nnc(-c2ccccc2)c(=O)n1N [metamitron]
Fruit Load (fruits/tcsa) [1, 3]: 11.20 fruits/tcsa
Thinning Effect (%) [1, 3]: 33.2%
Fruit Load (fruits/tcsa) [1, 4]: 11.42 fruits/tcsa
Thinning Effect (%) [1, 4]: 31.8%
Fruit Load (fruits/tcsa) [1, 5]: 6.83 fruits/tcsa
Thinning Effect (%) [1, 5]: 59.3%
Fruit Load (fruits/tcsa) [1, 6]: 11.44 fruits/tcsa
Thinning Effect (%) [1, 6]: 31.8%
Fruit Load (fruits/tcsa) [1, 7]: 11.40 fruits/tcsa
Thinning Effect (%) [1, 7]: 32.0%
Fruit Load (fruits/tcsa) [1, 8]: 11.98 fruits/tcsa
Thinning Effect (%) [1, 8]: 28.5%
Fruit Load (fruits/tcsa) [1, 9]: 8.07 fruits/tcsa
Thinning Effect (%) [1, 9]: 51.8%
Fruit Load (fruits/tcsa) [1, 10]: 12.33 fruits/tcsa
Thinning Effect (%) [1, 10]: 31.27%
Fruit Load (fruits/tcsa) [1, 11]: 12.30 fruits/tcsa
Thinning Effect (%) [1, 11]: 31.39%
Fruit Load (fruits/tcsa) [1, 12]: 9.58 fruits/tcsa
Thinning Effect (%) [1, 12]: 46.57%
Fruit Load (fruits/tcsa) [1, 13]: 12.67 fruits/tcsa
Thinning Effect (%) [1, 13]: 29.38%
Fruit Load (fruits/tcsa) [1, 14]: 9.37 fruits/tcsa
Thinning Effect (%) [1, 14]: 47.75%
Photosynthetic Activity levels ([2]; Germany, after 1st application 1.65 Kg/ha): Low
Photosynthetic Activity levels ([2]; Germany, after 1st application 2.2 Kg/ha): Low
Photosynthetic Activity levels ([2]; Italy, after 1st application 1.65 Kg/ha): Low
Photosynthetic Activity levels ([2]; Italy, after 1st application 2.2 Kg/ha): Low
